Marks after values point to notes of the source that are not given here.
Tests used:
mouse ear edema = assay: Balb.c ear edema test; type: in vivo, Balb.c mouse; details: 0.3 mg/ear topically at 15 min and 6 hr after induction; 24 hr
Protocol: To examine anti-inflammatory effect of the extracts, irritation-inducing substances, 5.0% benzalkonium chloride, 2.5% coroton oil and 3000 iu/g retinoic acid (negative control) were dissolved in 70% ethanol solution and its 0.3 mg/ear was topically applied to mouse ear (6 mice per group) in order to induce edema. At 15 min and 6 hr after induction of edema, respectively, each of the extract and controls (0.3 mg/ear) was topically applied to mouse ear. After 24 hr of application of irritation-inducing substances, the applied portion of the mouse was cut off with a punch and its weight was weighted. The edema extent was evaluated based on the mean value from the measurements with micrometer.
Inhibitory rate (%)=[(A−B)/A]×100 Formula 4
A: mean value of ear thickness of control group (ear thickness after treatment of negative control−ear thickness with no treatment)
B: ear thickness of sample group (ear thickness after treatment of sample−ear thickness with no treatment)

[1] = target: T1, Testosterone 5α-Reductase (Rattus norvegicus, UniProt P24008); assay: Inhibitory effect on testosterone 5α-reductase activity (rat liver enzyme, (3H) testosterone, TLC); type: biochemical, Sprague-Dawley rat
T1 construct: from tissue; host or cells: liver of 8-week-old female Sprague-Dawley rat (homogenate, sonicated and centrifuged)
T1 sequence (P24008 1-259): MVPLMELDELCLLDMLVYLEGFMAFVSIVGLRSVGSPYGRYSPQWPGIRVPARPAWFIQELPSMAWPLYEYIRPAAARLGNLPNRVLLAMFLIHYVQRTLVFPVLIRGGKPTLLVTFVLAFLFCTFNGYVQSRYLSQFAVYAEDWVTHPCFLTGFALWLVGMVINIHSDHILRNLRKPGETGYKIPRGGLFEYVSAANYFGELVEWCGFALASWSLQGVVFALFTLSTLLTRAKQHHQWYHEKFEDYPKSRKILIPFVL
Protocol: Testosterone 5α-Reductase, used to examine the inhibitory effect of the extract obtained from oriental medicines against testosterone 5α-reductase activity, was prepared at a temperature of below 4° C. The white female Sprague-Dawley rat aged at 8 weeks was anesthetized by inhalation of diethylether and sacrificed by the disjunction of cervicals, followed by liver ablation. The extracted liver was washed three times with PBS (phosphate buffered saline) and 3 volumes of ice-cold buffer (50 mM sodium phosphate, pH 6.8, 0.25 M sucrose, 1 mM dithiothreitol) were added, followed by pulverizing with a cell homogenizer (Polytron Homogenizer), obtaining homogenized suspension. […] The protein quantification of the protein suspension obtained thus was performed according to Bradford method and its accurate value was determined with ELISA reader.
For evaluating the inhibitory effect on the activity of 5α-Reductase, to 50 μl of the reaction solution, 10 μl of ethanol solution of inhibitor or tested sample (70% ethanol solution containing extract from oriental medicine) were added and the protein suspension was added to the volume of 100 μl of the reaction solution. […] The area exposed was measured with densitometer and the inhibitory rate against testosterone 5α-Reductase was calculated as shown in the below formula 1. […]

comedo of rabbit ear [2] = assay: Alleviatory effect on comedo using ear of white rabbit, observation with naked eye; type: in vivo, New Zealand white male rabbits
From the text: (§1) Test system—This test has been generally adopted for evaluation of treatment. New Zealand white male rabbits aged at 4-month and weighed 2-3 kg were purchased and mitigated for 1 week, of which only the healthy ones determined with naked eye were selected.
(§2) Test materials—For test groups, the powderized extracts (0.1% (w/v)) from Cavalia gladiata, Biota orientalis, Coptis chinensis and their mixture dissolved in 70% ethanol solution were used, respectively, 1.0% azelaic acid dissolved in 70% ethanol solution was used as a positive control and 70% ethanol solution per se was used as negative control.
(§3) Classification of test systems—Isopropyl myriatate (Sigma) was daily applied to both ears of rabbit for 2 weeks for inducing comedo. Rabbits observed with naked eye to show typical comedo were selected and classified to groups each of which was comprised of 6 rabbits in consideration of comedo severity.
(§4) Administration method of test materials—Test groups and a positive control to the right ear and a negative control to the left ear of rabbit were administered once daily for 2 weeks in the amount of 0.5 ml and spread with a swab. After 2 weeks, both ears were evaluated.
The standards for determination with naked eye were classified to 7 grades, 0, 0.5, 1.0, 1.5, 2.0, 2.5 and 3.0. The area of comedo was evaluated. The period for treatment of comedo was 2-week and the aggravation and alleviation of comedo were determined.
• 0: no difference compared to control • […]: symptoms between 0 and 1 • 1: showing congestion, bleeding of capillary tube, slight cornification and enlargement of hair follicle • 1.5: symptoms between 1 and 2 • 2: medium severity of cornification and enlargement of hair follicle • 2.5: symptoms between 2 and 3 • 3: excessive severity of cornification and enlargement of hair follicle, showing typical comedo

comedo of rabbit ear [3] = assay: Alleviatory effect on comedo using ear of white rabbit, observation with image analysis; type: in vivo, New Zealand white male rabbits
From the text: as §1, §2, §3, §4
After the observation with naked eye, each test group was euthanized with sodium pentobarbital and its both ears were cut out, after which their tissues at basement were cleaved in a size of about 2.5×1.5 cm and immersed in warm water (50° C.) for 3 min. The epiderms from the tissues were detached, placed with inner side upward on slide glass, fixed and dried at room temperature.

skin of a hairless mouse = assay: First screening for promoting keratolysis (silver acetate blackened skin, closed patch); type: in vivo; set-up: key to Discoloration (keratolysis effect): ++: significant discoloration; +: discoloration; ±: slight discoloration; −: no change; details: for Appearance of Exfoliation: hairless mouse, closed patch about 24 hr; for Discoloration (keratolysis effect): positive control 2 wt % (pH 4)
Protocol: All skin cells help to maintain skin homeostasis through suitable metabolic processes by controlling the rate of their proliferation and exfoliation. Therefore, the reproduction rate of skin could be indirectly examined by observing the exfoliation rate of stratum corneum that can be generally measured by evaluating the level of skin discoloration associated with keratolysis. In evaluating the efficacy of extracts, the first screening for promoting keratolysis was performed using hairless mouse. Each extract sample was prepared by dissolving the dried powder extract prepared in Example 1 in 70% ethanol and the positive controls including glycolic acid or lactic acid were prepared as described above. The experiments were carried out as follows: The skin of a hairless mouse was washed with 10% SDS for 30 min and then allowed its skin to dry for experiment. 0.4 ml of aqueous silver acetate liquid was covered with a hill top chamber and closed patch was performed for 30 min, followed by infiltrating with a photo-developing solution to blacken a portion of patch with silver acetate. The closed patch was further performed with each extract sample on the blackened portion and removed after about 24 hr. The coloring index before application of extract and discoloring index at 24 hr after removal were measured by means of calorimeter (The higher the discoloring index, the higher is the keratolysis effect)

carrageenan foot edema = assay: Carrageenan foot edema method using SD rat; type: in vivo; details: 30 mg/kg intraperitoneally, 1 hr before carrageenan; foot volume change at 4 hr
Protocol: The extracts from Cavalia gladiata, Biota orientalis, Coptis chinensis and their mixture prepared in Example 1 were intraperitoneally administered, respectively, in an amount of 30 mg/kg. After 1 hr, 0.5 ml of 0.1% carrageenan solution was injected into the sole of a back foot to induce inflammation. The volume change of rat foot at the time of injection of carrageenan and 4-hr after administration was measured and the Inhibitory rate was calculated according to the Formula 3. Inhibitory rate (%)=[(1−ΔVtreated group)/ΔVcontrol group)]×100 (ΔV: volume change of foot) Formula 3

Propionibacterium acnes = assay: Antimicrobial activity against acne pathogen (agar medium, anaerobic culture, colony count); type: cell-based; set-up: key: −: inhibition of growth; ±: pseudo-positive; +: positive
Protocol: The examination on antimicrobial activity of three extracts (Cavalia gladiata, Biota orientalis and Coptis chinensis) was performed in such a manner that an acne pathogen (Propionibacterium acnes) that was cultured in liquid medium was treated with a predetermined concentration of extract powderized by freeze drying and then cultured in an anaerobic incubator, followed by measuring a minimum inhibitory concentration (MIC) against an acne pathogen (Propionibacterium acnes). The overall procedure is as follows:
The acne pathogen (Propionibacterium acnes) was cultured at 37° C. for 3 days in reinforced clostridial medium and then continued to subculture until showing significant activity.
First, in a liquid culture method, 10 ml of reinforced clostridial medium were introduced to screw cap tube and sterilized for 20 min at 121° C. After sterilization, 0.5 ml of liquid paraffin sterilized separately was added dropwise on the liquid medium to protect the contact with oxygen. After cooling the medium, the microbe was inoculated into the medium and cultured at 37° C. for above 72 hr.
Second, in a solid culture method, 10 ml of the solid medium prepared by adding 0.1% agar to reinforced clostridial medium was introduced to a screw cap tube and sterilized at 121° C. for 20 min. After cooling the medium, the microbe was inoculated into the medium by use of inoculating platinum loop and stab-cultured for 72 hr at 37° C.
Third, in a plate culture method, the agar medium prepared and sterilized as a solid culture method was poured to a plate and cooled. After cooling and solidifying completely, the plate was placed in an anaerobic jar, 10 ml of water were introduced to complex gas (CO2 10.5%, H2 9.6%, N2 79.9%) and the lid was kept covered, followed by culturing at 37° C. for 72 hr.
1 ml of the medium containing Propionibacterium acnes subjected to a sufficient subculture was taken and inoculated into a medium containing 9 ml of reinforced clostridial medium, thereby obtaining 10-fold diluted culture medium. The same procedure was repeated to obtain between 10^−1 and […] diluted culture media. Each of the homogeneous solutions containing Cavalia gladiata, Biota orientalis, Coptis chinensis and at least two combinations thereof was well dissolved in 10 ml of 70% ethanol to obtain 2-fold diluted solution. The solution was filtered for removing bacteria through 0.2 μm membrane filter. […] 1 ml of the diluted medium (medium of Propionibacterium acnes subject to subculture diluted to 10^−1-10^−5) was dispensed in a petri dish and each agar medium having certain concentration was dispensed, followed by mixing and keeping it to stand for solidifying the agar medium. After solidification, the medium was placed in an anaerobic jar that in turn was equipped with gas-pak. Following culturing at 37° C. for 3 days, the number of colonies formed were counted and compared to that of a control group, and the inhibitory rate was calculated based on the results.

[4] = extracts 0.1% (w/v), azelaic acid 1.0%, 2 weeks

Compound: COc1ccc2c(c1)c(CC(=O)O)c(C)n2C(=O)c1ccc(Cl)cc1 [Indomethacin]
- Inhibitory rate on ear thickness (%) (mouse ear edema): 52.0%
- Inhibitory rate on ear weight (%) (mouse ear edema): 45.6%

Compound: O=C(O)CCCCCCCC(=O)O [Azelaic acid]
- Inhibitory rate against 5α-reductase (%) ([1]; Conc. 0.1 %): 19.8%
- Inhibitory rate against 5α-reductase (%) ([1]; Conc. 1.0 %): 100.0%
- Inhibitory rate (%), naked eye comedo grade (comedo of rabbit ear [2]; [4]): 28.5%
- After administration (right ear), naked eye comedo grade (comedo of rabbit ear [2]; grades 0-3, extracts 0.1% (w/v), azelaic acid 1.0%, 0.5 ml once daily for 2 weeks): 1.13 ± 0.14
- Before administration (left ear), naked eye comedo grade (comedo of rabbit ear [2]; grades 0-3, left ear): 1.58 ± 0.12
- Inhibitory rate (%), area of comedo/number (comedo of rabbit ear [3]; [4]): 40.0%
- After administration (right ear) Area of comedo/number (cm^2) (comedo of rabbit ear [3]; image analysis, extracts 0.1% (w/v), azelaic acid 1.0%, once daily for 2 weeks): 0.18 ± 0.02 cm^2
- Before administration (left ear) Area of comedo/number (cm^2) (comedo of rabbit ear [3]; image analysis, left ear): 0.30 ± 0.02 cm^2
- comedo decreasing ratio (area/count ratio) (comedo of rabbit ear [3]; text restating Table 11): 40.0%

Compound: CC(O)C(=O)O (stereo not drawn) [Lactic acid]
- Appearance of Exfoliation (skin of a hairless mouse): Heterogeneous
- Discoloration (keratolysis effect) (skin of a hairless mouse): 2 wt % (pH 4) ++

Compound: CC1(C)[C@@H](O[C@H]2O[C@H](C(=O)O)[C@@H](O)[C@H](O)[C@H]2O[C@@H]2O[C@H](C(=O)O)[C@@H](O)[C@H](O)[C@H]2O)CC[C@]2(C)[C@H]3C(=O)C=C4[C@@H]5C[C@@](C)(C(=O)O)CC[C@]5(C)CC[C@@]4(C)[C@]3(C)CC[C@@H]12 [Glycyrrhizinic acid]
- Inhibitory rate on ear thickness (%) (mouse ear edema): 42.7%
- Inhibitory rate on ear weight (%) (mouse ear edema): 38.4%

Compound: CC(=O)Oc1ccccc1C(=O)O [Aspirin]
- Inhibitory rate (%) of foot edema (carrageenan foot edema): 35.2 ± 6%

Compound: O=C(O)CO [Glycolic acid]
- Appearance of Exfoliation (skin of a hairless mouse): Heterogeneous
- Discoloration (keratolysis effect) (skin of a hairless mouse): 2 wt % (pH 4) ++

Compound: O=C(OOC(=O)c1ccccc1)c1ccccc1 [Benzoylperoxide]
- MIC to P. acnes (growth at concentration of extract) (Propionibacterium acnes; Concentration of extract 0.005 %): +
- MIC to P. acnes (growth at concentration of extract) (Propionibacterium acnes; Concentration of extract 0.01 %): +
- MIC to P. acnes (growth at concentration of extract) (Propionibacterium acnes; Concentration of extract 0.03 %): +
- MIC to P. acnes (growth at concentration of extract) (Propionibacterium acnes; Concentration of extract 0.05 %): +***
- MIC to P. acnes (growth at concentration of extract) (Propionibacterium acnes; Concentration of extract 0.10 %): ±**
- MIC to P. acnes (growth at concentration of extract) (Propionibacterium acnes; Concentration of extract 0.50 %): −

From patent US7695741B2, “Topical formulation for prevention and treatment of acne” (SK Chemicals Co., Ltd., priority 2002, dated 2010)
